Results from ChEMBL document CHEMBL5096195, “Recent research and development of NDM-1 inhibitors” (Eur J Med Chem, 2021).
Converted amounts (≈) assume the structure as drawn. Where a SMILES comes first, the peptide text is derived from it. [ ]: non-standard residue; d: D form. The star is where a group is joined. NODAGA = O=C(O)CN1CCN(CC(=O)O)CCN(C(CCC(=O)*)C(=O)O)CC1; NMeA = CN[CH](C)C(=O)O

How the values were obtained:
[1] = Inhibition of NDM-1 (unknown origin) by HPLC analysis; set-up: species or system Homo sapiens
[2] = Inhibition of NDM-1 (unknown origin) expressed in Escherichia coli; set-up: species or system Homo sapiens
[3] = Inhibition of NDM-1 (unknown origin) using cefuroxime sodium as substrate incubated for 5 mins by UV-1800 spectrophotometric analysis; set-up: species or system Homo sapiens
[4] = Inhibition of NDM-1 (unknown origin) expressed in Escherichia coli Zc-YN3
[5] = Inhibition of NDM-1 (unknown origin) measured after 10 mins; set-up: species or system Homo sapiens
[6] = system: Escherichia coli; assay: Antibacterial activity against Escherichia coli measured after 18 hrs; format: functional
[7] = system: Klebsiella pneumoniae; assay: Synergistic antibacterial activity against carbapenem-resistant Klebsiella pneumoniae expressing NDM-1 measured after 18 hrs in the presence of meropenem; format: functional
[8] = Inhibition of NDM-1 (unknown origin); set-up: species or system Homo sapiens
[9] = Inhibition of NDM-1 (unknown origin) using cefazolin as substrate incubated for 12 hrs by Agilent UV8453 UV-Vis spectrometric analysis; set-up: species or system Homo sapiens
[10] = organism: Homo sapiens; assay: Inhibition of NDM-1 (unknown origin) at 16 uM using cefazolin as substrate incubated for 12 hrs by Agilent UV8453 UV-Vis spectrometric analysis relative to control
[11] = Binding affinity to NDM-1 (unknown origin) assessed as kinetic constant using cefazolin as substrate preincubated for 60 sec followed by cefazolin addition after 60 sec by isothermal titration calorimetric assay; set-up: species or system Homo sapiens
[12] = system: Escherichia coli; assay: Antibacterial activity against Escherichia coli expressing NDM-1 assessed as decrease in meropenem MIC at 4 mg/L incubated for 18 to 20 hrs by broth microdilution method; format: functional; conditions: time 18-20 hrs
[13] = Inhibition of NDM-1 (unknown origin) using meropenem as substrate incubated for 10 mins; set-up: species or system Homo sapiens
[14] = Binding affinity to NDM-1 (unknown origin) assessed as inhibition constant using meropenem as substrate incubated for 10 mins; set-up: species or system Homo sapiens
[15] = Binding affinity to NDM-1 (unknown origin) assessed as inhibition constant using cefazolin as substrate incubated for 5 mins measured for every 1 sec by isothermal titration calorimetric analysis; set-up: species or system Homo sapiens
[16] = system: Citrobacter freundii; assay: Antibacterial activity against Citrobacter freundii expressing NDM-1 assessed as decrease in meropenem MIC at 4 mg/L incubated for 18 to 20 hrs by broth microdilution method; format: functional; conditions: time 18-20 hrs
[17] = system: Citrobacter freundii; assay: Antibacterial activity against Citrobacter freundii expressing NDM-1 assessed as decrease in meropenem MIC at 8 mg/L incubated for 18 to 20 hrs by broth microdilution method; format: functional; conditions: time 18-20 hrs
[18] = system: L929; assay: Cytotoxicity against mouse L929 cells at 250 uM incubated for 48 hrs by MTT assay relative to control; format: toxicity, cell-based; conditions: l929, 48 h
[19] = system: Escherichia coli; assay: Synergistic antibacterial activity against Escherichia coli BL21 (DE3) expressing NDM-1 incubated for 12 hrs in the presence of cefuroxime sodium by two-fold checkerboard microdilution method; format: functional
[20] = Inhibition of NDM-1 (unknown origin) using nitrocefin as substrate; set-up: species or system Homo sapiens
[21] = Inhibition of NDM-1 (unknown origin) by using nitrocefin as substrate preincubated for 10 min followed by nitrocefin addition incubated after 30 min; set-up: species or system Homo sapiens
[22] = Oral bioavailability in BALB/c mouse relative to control; format: ADME, organism-based; conditions: in vivo

O=C(O)[C@H]1O[C@@H](Oc2cc3oc(-c4ccccc4)cc(=O)c3c(O)c2O)[C@H](O)[C@@H](O)[C@@H]1O [BAICALIN]
IC50 [1]: 3.89 µM

CC1(C)S[C@H]2CS[C@H](CS)N2[C@@H]1C(=O)O
IC50 [2]: 200 µM

COc1ccc([C@@H]2CC(=O)c3c(O)cc(O[C@@H]4O[C@H](CO[C@@H]5O[C@@H](C)[C@H](O)[C@@H](O)[C@H]5O)[C@@H](O)[C@H](O)[C@H]4O)cc3O2)cc1O [HESPERIDIN]
IC50 [3]: 3.35 µM

CC1(C)S[C@@H]2CS[C@@H](CS)N2[C@H]1C(=O)O
IC50 [2]: 180 µM

C=CCc1ccc(O)c(-c2cc(CC=C)ccc2O)c1 [MAGNOLOL]
IC50 [4]: 6.47 µM

O=C1N(Cc2cccc3ccccc23)c2ccccc2C12NN=C(c1ccccc1)S2 (configuration not stated)
IC50 [5]: 6.6 µM
MIC [6]: 4 µM (≈ 1.69 µg/mL)
MIC [7]: 2 µM

O=C(O)[C@@H]1SC[C@H]2CS[C@H](CS)N21
IC50 [2]: 23 µM

O=C(O)CN(CCN(CC(=O)O)CC(=O)O)CC(=O)O [EDETIC ACID]
IC50 [8]: 1.6 µM

O=C(O)C(=O)CBr [BROMOPYRUVATE]
IC50 [9]: 2.57 µM
inhibition [10]: > 90%
Ki [11]: 3.8 µM

O=C(O)[C@H]1SC[C@@H]2CS[C@@H](CS)N21
IC50 [2]: 109 µM

O=C(O)CN1CCN(CC(=O)O)CCN(CC(=O)O)CC1
MIC [12]: 0.125 µg/mL

CCCCCCCCCCCC1=C(O)C(=O)C=C(O)C1=O [EMBELIN]
IC50 [13]: 2.1 µM
Ki [14]: 0.19 µM

O=C(NNC(=S)S)c1ccccc1O
Ki [15]: 0.29 µM

c1ccc(CN(CCN(Cc2ccccn2)Cc2ccccn2)Cc2ccccn2)nc1
MIC [16]: 0.5 µg/mL
MIC [17]: 0.06 µg/mL

COC(=O)C[C@H]1[C@]2(C)C3=C(C)[C@H](c4ccoc4)C[C@H]3O[C@@H]2[C@@H]2OC(=O)[C@]3(C)C=CC(=O)[C@@]1(C)[C@@H]23 [NIMBOLIDE]
IC50 [8]: 1.34 µM

O=C(NNC(=S)[S][K])c1ccccc1O
Activity [18]: > 80%

CC1(C)S[C@@H]2[C@H](NC(=O)[C@H](N)c3ccccc3)C(=O)N2[C@H]1C(=O)O [AMPICILLIN]
MIC [19]: 32 µM

N[C@@H](CN[C@@H](CN[C@@H](CC(=O)O)C(=O)O)C(=O)O)C(=O)O
IC50 [20]: 4 µM

COc1cc(/C=C/c2ccc(O)cc2)cc(OC)c1 [PTEROSTILBENE]
IC50 [21]: 15.37 µg/mL (≈ 60 µM)
bioavailability [22]: 80%

CC(C(=O)NC(Cc1ccccc1)C(=O)N(C)C(C)C(=O)NC(Cc1ccccc1)C(N)=O)N(C)C(=O)CCC(C(=O)O)N1CCN(CC(=O)O)CCN(CC(=O)O)CC1 (configuration not stated) ({NODAGA}-[NMeA]F[NMeA]F-NH2; configuration not given here)
MIC [12]: 0.125 µg/mL
